A value given as a limit tells only on which side of the number the result lay.

One may read the IC50 as the concentration that inhibits the measured activity by half.

Experiment [1] concerns Phosphorylation of ERK1/2 in A-427 cells. Nature of the experiment: Phospho-ERK1/2 MSD Assay. Format: cell-based. The note with it: Homo sapiens, A-427, 2 h, 2 h compound treatment, read-out: pERK (A427 cells) IC50. The protocol:
A-427 (ATCC® HTB-53™) cells were cultured in RPMI 1640 Medium (ThermoFisher Scientific 11875093) containing 10% fetal bovine serum (ThermoFisher Scientific 16000044) and 1× penicillin-streptomycin-glutamine (ThermoFisher Scientific 10378016). Sixteen hours prior to compound treatment, A-427 cells were seeded in 96-well cell culture plates at a density of 25,000 cells/well and incubated at 37° C., 5% CO2. A compound dose-response titration was diluted in growth media, added to appropriate wells of a cell culture plate, and then incubated at 37° C., 5% CO2 for 2 h. Following compound treatment, cells were washed with ice-cold Dulbecco's phosphate-buffered saline, no Ca^2+ or Mg^2+ (ThermoFisher Scientific 14190144), and then lysed in RIPA buffer (50 mM Tris-HCl pH 7.5, 1% Igepal, 0.5% sodium deoxycholate, 150 mM NaCl, and 0.5% sodium dodecyl sulfate) containing protease inhibitors (Roche 4693132001) and phosphatase inhibitors (Roche 4906837001). Phosphorylation of ERK1/2 in compound-treated lysates was assayed using Phospho-ERK1/2 Whole Cell Lysate kits (Meso Scale Discovery K151DWD) according to the manufacturer's protocol. Assay plates were read on a Meso Scale Discovery Sector Imager 6000, and data were analyzed using a 4-parameter logistic model to calculate IC50 values.

Experiment [2] has as its target GDP-bound KRAS protein (aa 1-169), containing both G12D and C118A amino acid substitutions (Homo sapiens, UniProt P01116, C118A/G12D). Briefly: KRAS G12D Coupled Nucleotide Exchange Assay.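 Further: IC50 obtained by fitting the AlphaScreen signal with a four-parameter logistic curve.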 The note with it: 2 h compound pre-incubation; SOS-mediated nucleotide exchange, cRAF AlphaScreen readout. In kind it is biochemical.
Experiment [3] has as its target His-tagged KRAS G12D protein (Homo sapiens, UniProt P01116, G12D). Nature of the experiment: KRAS G12D TR-FRET Assay.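 Further: europium anti-His antibody paired with streptavidin-d2 as FRET partners, initial 30 min incubation, then peptide 1 h and detection reagents 1 h, all at room temperature.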 In kind it is binding. The note with it: biotinylated KRPep-2d substrate, 10 μM GDP. (In general: Time-resolved FRET reads energy transfer from a long-lived donor to a nearby acceptor.)

Sequence of GDP-bound KRAS protein (aa 1-169), containing both G12D and C118A amino acid substitutions (P01116 1-169 isoform P01116-2 G12D/C118A): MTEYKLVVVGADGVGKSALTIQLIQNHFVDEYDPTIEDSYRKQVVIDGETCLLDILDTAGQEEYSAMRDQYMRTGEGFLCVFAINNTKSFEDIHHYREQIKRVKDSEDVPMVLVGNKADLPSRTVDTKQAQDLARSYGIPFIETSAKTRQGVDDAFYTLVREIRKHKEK
Sequence of His-tagged KRAS G12D protein (P01116 1-188 isoform P01116-2 G12D): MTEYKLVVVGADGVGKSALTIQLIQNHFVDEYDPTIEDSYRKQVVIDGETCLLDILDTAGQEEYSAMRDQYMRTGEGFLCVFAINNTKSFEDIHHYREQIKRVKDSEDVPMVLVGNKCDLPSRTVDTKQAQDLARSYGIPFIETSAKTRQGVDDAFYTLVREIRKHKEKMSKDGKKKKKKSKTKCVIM

Turning to `Nc1nc2c(-c3c(Cl)cc4c(N5CCNCC5)nc(OC[C@]56CCCN5[C@@H](CO)CC6)nc4c3F)cccc2s1` [Example 50, ((3R,7aR)-7a-(((7-(2-aminobenzo[d]thiazol-4-yl)-6-chloro-8-fluoro-4-(piperazin-1-yl)quinazolin-2-yl)oxy)methyl)hexahydro-1H-pyrrolizin-3-yl)methanol], the IC50 in experiment [1] was found to be 20200 nM; in experiment [3], 55 nM. Also, the “Avg 2 h Coupled Exchange IC50” value in experiment [2] came to 42 nM.
For `N#Cc1c(OCC23CCCN2C[C@H](F)C3)nc2c(F)c(-c3ccc(F)c4sc(N)nc34)c(Cl)cc2c1N1[C@@H]2CC[C@H]1CNC2` (stereo partly drawn) [Example 159, 7-(2-amino-7-fluorobenzo[d]thiazol-4-yl)-4-((1R,5S)-3,8-diazabicyclo[3.2.1]octan-8-yl)-6-chloro-8-fluoro-2-(((2R)-2-fluorotetrahydro-1H-pyrrolizin-7a(5H)-yl)methoxy)quinoline-3-carbonitrile] the same measures were greater than 10000 nM, 174 nM and 88 nM.
On the same counts, the results for `CN1CCC[C@H]1CCOc1nc(N2CCNCC2)c2cc(Cl)c(-c3cccc4sc(N)nc34)c(F)c2n1` [Example 61, 4-(6-chloro-8-fluoro-2-(2-((S)-1-methyl-pyrrolidin-2-yl)ethoxy)-4-(piperazin-1-yl)quinazolin-7-yl)benzo[d] thiazol-2-amine] are greater than 25000 nM, 476 nM and 361 nM.
On the same counts, the results for `CN1CC[C@H]1COc1nc(N2CCNCC2)c2cc(Cl)c(-c3cccc4sc(N)nc34)c(F)c2n1` [Example 52, 4-(6-chloro-8-fluoro-2-(((S)-1-methylazetidin-2-yl)methoxy)-4-(piperazin-1-yl)quinazolin-7-yl)benzo[d] thiazol-2-amine] are 16000 nM, 134 nM and 59 nM.
`Nc1nc2c(-c3c(Cl)cc4c(N5[C@@H]6CC[C@H]5CNC6)nc(OCC56CCCN5CC(F)(F)C6)nc4c3F)ccc(F)c2s1` (stereo partly drawn) [Example 9, 4-(4-((1R,5S)-3,8-diazabicyclo[3.2.1]octan-8-yl)-6-chloro-2-((2,2-difluorotetrahydro-1H-pyrrolizin-7a(5H)-yl)methoxy)-8-fluoroquinazolin-7-yl)-7-fluorobenzo[d] thiazol-2-amine]: the IC50 in experiment [1] was found to be 403 nM; in experiment [3] it was 7 nM. Further, the “Avg 2 h Coupled Exchange IC50” value in experiment [2] was 9 nM.
On the same counts, the results for `Nc1nc2c(-c3c(Cl)cc4c(N5CC6CCC(C5)NC6)nc(OC[C@@]56CCCN5C[C@H](F)C6)nc4c3F)ccc(F)c2s1` (stereo partly drawn) [Example 31, 4-(4-(3,6-diazabicyclo[3.2.2]nonan-3-yl)-6-chloro-8-fluoro-2-(((2R,7aS)-2-fluorotetrahydro-1H-pyrrolizin-7a(5H)-yl)methoxy)quinazolin-7-yl)-7-fluorobenzo[d] thiazol-2-amine] are 1020 nM, 6 nM and 5 nM.
Consider `CN1CCC[C@H]1COc1nc(N2C[C@@H]3CC[C@H]2CN3)c2cc(Cl)c(-c3cccc4sc(N)nc34)c(F)c2n1` [Example 15, 4-(4-((15,4S)-2,5-diazabicyclo[2.2.2]octan-2-yl)-6-chloro-8-fluoro-2-(((S)-1-methylpyrrolidin-2-yl)methoxy)quinazolin-7-yl)benzo[d]thiazol-2-amine], for which the IC50 was 2300 nM in experiment [1] and 21 nM in experiment [3]. Further, in experiment [2], the “Avg 2 h Coupled Exchange IC50” value came to 14 nM.
For `Nc1nc2c(-c3c(Cl)cc4c(N5CCNC6CCCC65)nc(OC[C@@]56CCCN5C[C@H](F)C6)nc4c3F)ccc(F)c2s1` (stereo partly drawn) [Example 40, 4-(6-chloro-8-fluoro-2-(((2R,7aS)-2-fluorotetrahydro-1H-pyrrolizin-7a(5H)-yl)methoxy)-4-(octahydro-1H-cyclopenta[b]pyrazin-1-yl)quinazolin-7-yl)-7-fluorobenzo[d] thiazol-2-amine] the same measures were 5610 nM, 51 nM and 48 nM.
For `Nc1nc2c(-c3c(Cl)cc4c(N5CC6CNCC5C6)nc(OC[C@@]56CCCN5C[C@H](F)C6)nc4c3F)ccc(F)c2s1` (single isomer, unassigned) [Example 29] the same measures were 4730 nM, 107 nM and 13 nM.
Turning to `C[C@H]1CNCCN1c1nc(OC[C@@H]2CCCN2C)nc2c(F)c(-c3cccc4sc(N)nc34)c(Cl)cc12` [Example 16, 4-(6-chloro-8-fluoro-4-((S)-2-methylpiperazin-1-yl)-2-(((S)-1-methylpyrrolidin-2-yl)methoxy)quinazolin-7-yl)benzo[d]thiazol-2-amine], the values for the IC50 in experiment [1] and in experiment [3] were 4220 nM and 100 nM, respectively. For the same compound, the “Avg 2 h Coupled Exchange IC50” value in experiment [2] turned out to be 23 nM.
On the same counts, the results for `Nc1nc2c(-c3ccc4c(N5C[C@H]6CC[C@@H](C5)N6)nc(OC[C@@]56CCCN5C[C@H](F)C6)nc4c3)ccc(F)c2s1` [Example 133, 4-(4-((1R,5S)-3,8-diazabicyclo[3.2.1]octan-3-yl)-2-(((2R,7aS)-2-fluorotetrahydro-1H-pyrrolizin-7a(5H)-yl)methoxy)quinazolin-7-yl)-7-fluorobenzo[d]thiazol-2-amine] are 4440 nM, 74 nM and 6 nM.
In the case of `Nc1nc2c(-c3c(Cl)cc4c(N5CCNCC5)nc(OC[C@@H]5CCCN5CCF)nc4c3F)cccc2s1` [Example 56, 4-(6-chloro-8-fluoro-2-(((S)-1-(2-fluoroethyl)pyrrolidin-2-yl)methoxy)-4-(piperazin-1-yl)quinazolin-7-yl)benzo[d] thiazol-2-amine], the results for the IC50 in experiment [1] and in experiment [3] were 5670 nM and 266 nM, respectively. Further, in experiment [2], the “Avg 2 h Coupled Exchange IC50” value stood at 118 nM.
As to `Nc1nc2c(-c3c(Cl)cc4c(N5[C@@H]6CNC[C@H]5COC6)nc(OC[C@@]56CCCN5C[C@H](F)C6)nc4c3F)ccc(F)c2s1` [Example 122, 4-(4-((1R,5S)-3-Oxa-7,9-diazabicyclo[3.3.1]nonan-9-yl)-6-chloro-8-fluoro-2-(((2R,7aS)-2-fluorotetrahydro-1H-pyrrolizin-7a(5H)-yl)methoxy)quinazolin-7-yl)-7-fluorobenzo[d]thiazol-2-amine], the values for the half-inhibitory concentration (IC50) in experiment [1] and in experiment [3] were 167 nM and 4 nM, respectively. Moreover, the “Avg 2 h Coupled Exchange IC50” value in experiment [2] turned out to be 3 nM.
With `Nc1nc2c(-c3c(Cl)cc4c(N5CCNC6CC65)nc(OC[C@@]56CCCN5C[C@H](F)C6)nc4c3F)ccc(F)c2s1` (stereo partly drawn) [Example 39, 4-(4-(2,5-diazabicyclo[4.1.0]heptan-2-yl)-6-chloro-8-fluoro-2-(((2R,7aS)-2-fluorotetrahydro-1H-pyrrolizin-7a(5H)-yl)methoxy)quinazolin-7-yl)-7-fluorobenzo[d] thiazol-2-amine], the half-maximal inhibitory concentration (IC50) in experiment [1] was determined as 977 nM; in experiment [3], 11 nM. The “Avg 2 h Coupled Exchange IC50” value in experiment [2] came to 14 nM.
On the same counts, the results for `CN1C[C@H](F)C[C@H]1COc1nc(N2[C@@H]3CNC[C@H]2COC3)c2cc(Cl)c(-c3ccc(F)c4sc(N)nc34)c(F)c2n1` [Example 125, 4-(4-((1R,5S)-3-oxa-7,9-diazabicyclo[3.3.1]nonan-9-yl)-6-chloro-8-fluoro-2-(((2S,4R)-4-fluoro-1-methylpyrrolidin-2-yl)methoxy)quinazolin-7-yl)-7-fluorobenzo[d]thiazol-2-amine] are 369 nM, 6 nM and 9 nM.
For `Nc1nc2c(-c3c(Cl)cc4c(N5CCNCC5)nc(OC[C@@H]5C[C@@H](F)CN5)nc4c3F)cccc2s1` [Example 47, 4-(6-chloro-8-fluoro-2-(((2S,4R)-4-fluoro-pyrrolidin-2-yl)methoxy)-4-(piperazin-1-yl)quinazolin-7-yl)benzo[d] thiazol-2-amine] the same measures were greater than 25000 nM, 81 nM and 26 nM.
On the same counts, the results for `Nc1nc2c(-c3c(Cl)cc4c(N5CCNCC5)nc(OC[C@@H]5CCCN5)nc4c3F)cccc2s1` [Example 72, 4-(6-chloro-8-fluoro-4-(piperazin-1-yl)-2-(((S)-pyrrolidin-2-yl)methoxy)quinazolin-7-yl)benzo[d] thiazol-2-amine] are greater than 10000 nM, 112 nM and 63 nM.
In the case of `C=Cc1cc2c(N3[C@@H]4CC[C@H]3CNC4)nc(OC[C@@]34CCCN3C[C@H](F)C4)nc2c(F)c1-c1ccc(F)c2sc(N)nc12` [Example 151, 4-(4-((1R,5S)-3,8-diazabicyclo[3.2.1]octan-8-yl)-8-fluoro-2-(((2R,7aS)-2-fluorotetrahydro-1H-pyrrolizin-7a(5H)-yl)methoxy)-6-vinylquinazolin-7-yl)-7-fluorobenzo[d]thiazol-2-amine], the IC50 was found to be 33 nM in experiment [1] and 5 nM in experiment [3]. In addition, the “Avg 2 h Coupled Exchange IC50” value in experiment [2] came to 5 nM.
